From patent US8912189B2, “Pyridopyrazine derivatives and their use” (Aeterna Zentaris GmbH, priority 2011, dated 2014)

| SMILES | melting point |
| --- | --- |
| CCNC(=O)Nc1ccc2ncc(-c3cnn(Cc4ccc(Cl)cc4)c3)nc2n1 [Compound 18, 1-{3-[1-(4-Chloro-benzyl)-1H-pyrazol-4-yl]-pyrido[2,3-b]pyrazin-6-yl}-3-ethyl-urea] | 240 to 244 °C |
| CCNC(=S)Nc1ccc2ncc(-c3cnn(Cc4cc(OC)cc(OC)c4)c3)nc2n1 [Compound 39, 1-{3-[1-(3,5-Dimethoxy-benzyl)-1H-pyrazol-4-yl]-pyrido[2,3-b]pyrazin-6-yl}-3-ethyl-thiourea] | 230 °C |
| CCNC(=S)Nc1ccc2ncc(-c3cnn(Cc4cccc(C)c4F)c3)nc2n1 [Compound 48, 1-Ethyl-3-{3-[1-(2-fluoro-3-methyl-benzyl)-1H-pyrazol-4-yl]-pyrido[2,3-b]pyrazin-6-yl}-thiourea] | 242 to 245 °C |
| CCNC(=O)Nc1ccc2ncc(-c3cnn(Cc4cccc(OC(F)F)c4)c3)nc2n1 [Compound 3, 1-{3-[1-(3-Difluoromethoxy-benzyl)-1H-pyrazol-4-yl]-pyrido[2,3-b]pyrazin-6-yl}-3-ethyl-urea] | 198 °C |
| CCNC(=O)Nc1ccc2ncc(-c3cnn(Cc4ccc(OC(F)F)cc4)c3)nc2n1 [Compound 11, 1-{3-[1-(4-Difluoromethoxy-benzyl)-1H-pyrazol-4-yl]-pyrido[2,3-b]pyrazin-6-yl}-3-ethyl-urea] | 239 °C |
| CCNC(=O)Nc1ccc2ncc(-c3csc(C(=O)O)c3)nc2n1 [Compound 212, 4-[6-(3-Ethyl-ureido)-pyrido[2,3-b]pyrazin-3-yl]-thiophene-2-carboxylic acid] | 250 °C (dec.) |
| CCNC(=O)Nc1ccc2ncc(-c3cnn(Cc4cccc(O)c4)c3)nc2n1 [Compound 4, 1-Ethyl-3-{3-[1-(3-hydroxy-benzyl)-1H-pyrazol-4-yl]-pyrido[2,3-b]pyrazin-6-yl}-urea] | 242 °C |
| CCNC(=O)Nc1ccc2ncc(-c3ccoc3)nc2n1 [Compound 432, 1-Ethyl-3-(3-furan-3-yl-pyrido[2,3-b]pyrazin-6-yl)-urea] | 240 °C |
| CCNC(=S)Nc1ccc2ncc(-c3cnn(Cc4cccc(N(C)C)c4)c3)nc2n1 [Compound 37, 1-{3-[1-(3-Dimethylamino-benzyl)-1H-pyrazol-4-yl]-pyrido[2,3-b]pyrazin-6-yl}-3-ethyl-thiourea] | 215 °C |
| CCNC(=S)Nc1ccc2ncc(-c3cnn(Cc4ccccc4C)c3)nc2n1 [Compound 52, 1-Ethyl-3-{3-[1-(2-methyl-benzyl)-1H-pyrazol-4-yl]-pyrido[2,3-b]pyrazin-6-yl}-thiourea] | 252 to 255 °C |
| CCNC(=O)Nc1ccc2ncc(-c3cnn(Cc4ccc(C)cc4)c3)nc2n1 [Compound 15, 1-Ethyl-3-{3-[1-(4-methyl-benzyl)-1H-pyrazol-4-yl]-pyrido[2,3-b]pyrazin-6-yl}-urea] | 217 to 220 °C |
| CCNC(=O)Nc1ccc2ncc(-c3cnn(CCC(N)=O)c3)nc2n1 [Compound 404, 3-{4-[6-(3-Ethyl-ureido)-pyrido[2,3-b]pyrazin-3-yl]-pyrazol-1-yl}-propionamide] | 247 °C |
| COCNC(=S)Nc1ccc2ncc(-c3cnn(Cc4ccc(OC)c(OC)c4)c3)nc2n1 [Compound 35, 1-{3-[1-(3,4-Dimethoxy-benzyl)-1H-pyrazol-4-yl]-pyrido[2,3-b]pyrazin-6-yl}-3-methoxymethyl-thiourea] | 188 °C |
| CCNC(=O)Nc1ccc2ncc(-c3cnn(Cc4ccc(F)c(Cl)c4)c3)nc2n1 [Compound 8, 1-{3-[1-(3-Chloro-4-fluoro-benzyl)-1H-pyrazol-4-yl]-pyrido[2,3-b]pyrazin-6-yl}-3-ethyl-urea] | 214 to 219 °C |
| COCCNC(=S)Nc1ccc2ncc(-c3cnn(Cc4cccc(OC)c4)c3)nc2n1 [Compound 32, 1-{3-[1-(3-Methoxy-benzyl)-1H-pyrazol-4-yl]-pyrido[2,3-b]pyrazin-6-yl}-3-(2-methoxy-ethyl)-thiourea] | 215 °C |
| CCNC(=O)Nc1ccc2ncc(-c3cnn(Cc4cccc(C)c4)c3)nc2n1 [Compound 13, 1-Ethyl-3-{3-[1-(3-methyl-benzyl)-1H-pyrazol-4-yl]-pyrido[2,3-b]pyrazin-6-yl}-urea] | 208 to 210 °C |

The next lines start with the values.

| melting point | SMILES |
| --- | --- |
| 206 to 208 °C | CCNC(=S)Nc1ccc2ncc(-c3cnn(CCCc4ccccc4)c3)nc2n1 [Compound 44, 1-Ethyl-3-{3-[1-(3-phenyl-propyl)-1H-pyrazol-4-yl]-pyrido[2,3-b]pyrazin-6-yl}-thiourea] |
| 249 °C | CCNC(=S)Nc1ccc2ncc(-c3cnn(Cc4ccc(Cl)cc4)c3)nc2n1 [Compound 50, 1-{3-[1-(4-Chloro-benzyl)-1H-pyrazol-4-yl]-pyrido[2,3-b]pyrazin-6-yl}-3-ethyl-thiourea] |
| 201 °C | CCNC(=O)Nc1ccc2ncc(-c3cnn(Cc4cccc(OCCOC)c4)c3)nc2n1 [Compound 66, 1-Ethyl-3-(3-{1-[3-(2-methoxy-ethoxy)-benzyl]-1H-pyrazol-4-yl}-pyrido[2,3-b]pyrazin-6-yl)-urea] |
| 218 to 222 °C | CCNC(=S)Nc1ccc2ncc(-c3cnn(Cc4cccc(OC)c4OC)c3)nc2n1 [Compound 26, 1-{3-[1-(2,3-Dimethoxy-benzyl)-1H-pyrazol-4-yl]-pyrido[2,3-b]pyrazin-6-yl}-3-ethyl-thiourea] |
| 250 °C | CCNC(=O)Nc1ccc2ncc(-c3cnn(Cc4ccc(OC)c(O)c4)c3)nc2n1 [Compound 56, 1-Ethyl-3-{3-[1-(3-hydroxy-4-methoxy-benzyl)-1H-pyrazol-4-yl]-pyrido[2,3-b]pyrazin-6-yl}-urea] |
| 231 to 233 °C | CCNC(=S)Nc1ccc2ncc(-c3cnn(CCc4ccccc4)c3)nc2n1 [Compound 53, 1-Ethyl-3-[3-(1-phenethyl-1H-pyrazol-4-yl)-pyrido[2,3-b]pyrazin-6-yl]-thiourea] |
| 231 °C | CCNC(=O)Nc1ccc2ncc(-c3cnn(Cc4ccc(OC(F)(F)F)cc4)c3)nc2n1 [Compound 6, 1-Ethyl-3-{3-[1-(4-trifluoromethoxy-benzyl)-1H-pyrazol-4-yl]-pyrido[2,3-b]pyrazin-6-yl}-urea] |
| 222 °C | CCNC(=S)Nc1ccc2ncc(-c3cnn(Cc4cccc(OCC)c4)c3)nc2n1 [Compound 49, 1-{3-[1-(3-Ethoxy-benzyl)-1H-pyrazol-4-yl]-pyrido[2,3-b]pyrazin-6-yl}-3-ethyl-thiourea] |
| 222 °C | CCNC(=O)Nc1ccc2ncc(-c3ccc(CO)s3)nc2n1 [Compound 396, 1-Ethyl-3-[3-(5-hydroxymethyl-thiophen-2-yl)-pyrido[2,3-b]pyrazin-6-yl]-urea] |
| 244 °C | CCNC(=S)Nc1ccc2ncc(-c3cnn(Cc4ccc5c(c4)OCO5)c3)nc2n1 [Compound 5, 1-[3-(1-Benzo[1,3]dioxol-5-ylmethyl-1H-pyrazol-4-yl)-pyrido[2,3-b]pyrazin-6-yl]-3-ethyl-thiourea] |
| 249 °C | Cc1cccc(Cn2cc(-c3cnc4ccc(NC(=S)NCC(F)(F)F)nc4n3)cn2)c1 [Compound 51, 1-{3-[1-(3-Methyl-benzyl)-1H-pyrazol-4-yl]-pyrido[2,3-b]pyrazin-6-yl}-3-(2,2,2-trifluoro-ethyl)-thiourea] |
| 241 °C | CCNC(=S)Nc1ccc2ncc(-c3cnn(Cc4ccc(C)cc4)c3)nc2n1 [Compound 20, 1-Ethyl-3-{3-[1-(4-methyl-benzyl)-1H-pyrazol-4-yl]-pyrido[2,3-b]pyrazin-6-yl}-thiourea] |
| 187 °C | COCNC(=S)Nc1ccc2ncc(-c3cnn(Cc4cccc(OC)c4)c3)nc2n1 [Compound 33, 1-{3-[1-(3-Methoxy-benzyl)-1H-pyrazol-4-yl]-pyrido[2,3-b]pyrazin-6-yl}-3-methoxymethyl-thiourea] |
| 242 °C | CCNC(=O)Nc1ccc2ncc(-c3ccc(C)o3)nc2n1 [Compound 416, 1-Ethyl-3-[3-(5-methyl-furan-2-yl)-pyrido[2,3-b]pyrazin-6-yl]-urea] |
| 237 °C | CCNC(=S)Nc1ccc2ncc(-c3cnn(Cc4ccc(OC)cc4)c3)nc2n1 [Compound 23, 1-Ethyl-3-{3-[1-(4-methoxy-benzyl)-1H-pyrazol-4-yl]-pyrido[2,3-b]pyrazin-6-yl}-thiourea] |
| 235 to 238 °C | CCNC(=S)Nc1ccc2ncc(-c3cnn(Cc4ccc(F)c(Cl)c4)c3)nc2n1 [Compound 38, 1-{3-[1-(3-Chloro-4-fluoro-benzyl)-1H-pyrazol-4-yl]-pyrido[2,3-b]pyrazin-6-yl}-3-ethyl-thiourea] |
| 208 to 215 °C | CCNC(=O)Nc1ccc2ncc(-c3cnn(Cc4ccc(C#N)cc4)c3)nc2n1 [Compound 10, 1-{3-[1-(4-Cyano-benzyl)-1H-pyrazol-4-yl]-pyrido[2,3-b]pyrazin-6-yl}-3-ethyl-urea] |
| 219 °C | COCCNC(=S)Nc1ccc2ncc(-c3cnn(Cc4ccccc4)c3)nc2n1 [Compound 31, 1-[3-(1-Benzyl-1H-pyrazol-4-yl)-pyrido[2,3-b]pyrazin-6-yl]-3-(2-methoxy-ethyl)-thiourea] |
| 213 °C | CCNC(=S)Nc1ccc2ncc(-c3cnn(Cc4ccc(OC)c(OC)c4OC)c3)nc2n1 [Compound 43, 1-Ethyl-3-{3-[1-(2,3,4-trimethoxy-benzyl)-1H-pyrazol-4-yl]-pyrido[2,3-b]pyrazin-6-yl}-thiourea] |
| 239 °C | CCNC(=S)Nc1ccc2ncc(-c3cnn(Cc4cccc(O)c4)c3)nc2n1 [Compound 36, 1-Ethyl-3-{3-[1-(3-hydroxy-benzyl)-1H-pyrazol-4-yl]-pyrido[2,3-b]pyrazin-6-yl}-thiourea] |
| 218 °C | CCNC(=O)Nc1ccc2ncc(-c3cnn(Cc4cccc(S(C)(=O)=O)c4)c3)nc2n1 [Compound 64, 1-Ethyl-3-{3-[1-(3-methanesulfonyl-benzyl)-1H-pyrazol-4-yl]-pyrido[2,3-b]pyrazin-6-yl}-urea] |
| 182 °C | CCNC(=O)Nc1ccc2ncc(-c3cnn(CCCCc4ccccc4)c3)nc2n1 [Compound 16, 1-Ethyl-3-{3-[1-(4-phenyl-butyl)-1H-pyrazol-4-yl]-pyrido[2,3-b]pyrazin-6-yl}-urea] |
| 237 °C | CCNC(=O)Nc1ccc2ncc(-c3cnn(Cc4ccc(O)c(OC)c4)c3)nc2n1 [Compound 54, 1-Ethyl-3-{3-[1-(4-hydroxy-3-methoxy-benzyl)-1H-pyrazol-4-yl]-pyrido[2,3-b]pyrazin-6-yl}-urea] |
